According to US9351944B1, “Malodor eliminating compositions” (TAKASAGO INTERNATIONAL CORPORATION, priority 2008, dated 2016):
“And” between values parts separate entries of the source, which are not always exact repeats. Equal entries are not always repeated.

Tests used:
[1] = Propyl mercaptan chemical suppression by malodor eliminating materials (GC-PFPD); settings: OE material 0.2%, malodor material 10 ppm, room temperature 2 hours, triplicate
Experimental: (§1) The selected OE materials were tested for propyl, allyl, and furfuryl mercaptan suppression. 100 μl of 0.01%(w/v) of test malodor material in ethanol, 2 μl of neat flavor oil and 900 μl of deionized water were added into a 4 ml vial and left to sit at room temperature for 2 hours. As a control, ethanol was added instead of test flavor materials. The final concentration of test OE material and malodor material are 0.2% and 10 ppm, respectively. 3 ml of ethanol was added into the resulting vial and the thiol level was analyzed using GC-PFPD. Each material was tested in triplicate. Malodor suppression was calculated as described in the example 1 above.

[2] = Furfuryl mercaptan chemical suppression by malodor eliminating materials (GC-PFPD); settings: OE material 0.2%, malodor material 10 ppm, room temperature 2 hours, triplicate
Experimental: as §1

[3] = Suppression of methyl mercaptan (Example 12, GC-PFPD); settings: test material 0.2%, malodor material 10 ppm, room temperature 2 hours, triplicate
Experimental: as §1, with “100” for “The selected OE materials were tested for propyl, allyl, and furfuryl mercaptan suppression. 100”, “the malodor reducing compound.” for “test flavor materials.”, “test” for “test OE”, “ppmm,” for “ppm,”, “GC-PFPD as described above.” for “GC-PFPD.”

[4] = Allyl mercaptan chemical suppression by malodor eliminating materials (GC-PFPD); settings: OE material 0.2%, malodor material 10 ppm, room temperature 2 hours, triplicate
Experimental: as §1

[5] = Methyl mercaptan chemical suppression by Group A and Group B compounds (GC-PFPD); settings: test material 200 ppm, malodor material 10 ppm, room temperature 2 hours, ethanol/deionized water
Experimental: 2 μl of 0.5%(w/v) of sodium methoxide in deionized water, 20 μl of 1% (w/v) test malodor eliminating material in ethanol, 80 μl of ethanol, and 900 μl of deionized water were added into a 2 ml GC vial, left to sit at room temperature for 2 hours, and analyzed using Multipurpose sampler-GC-PFPD (Gas Chromatography-Pulsed Flame Photometric Detector) (GC-PFPD)MPS2 (Gerstel)—GC; 6890N (Agilent)—PFPD; model 5380 (OI Analytical). As a control, ethanol was added instead of test malodor eliminating materials. The final concentration of test OE material and malodor material are 200 ppm and 10 ppmm, respectively. Malodor suppression was calculated as follows: Malodor Suppression (%)=(GC area of control sample−GC area of test_sample)/GC area of control sample×100

[6] = Methyl mercaptan suppression by Group A and Group B materials alone and combined (synergistic or additive activity); settings: in ethanol, room temperature 2 hours; for methyl mercaptan suppression (%) A alone: Group A level 200 ppm
Experimental: The synergistic or additive activity of methyl mercaptan inhibition of malodor eliminating materials was tested. 5-40 μl of 1% (w/v) test OE materials in ethanol was placed into a 2 ml GC vial. Ethanol was added into this vial up to 1000 μl. 2 μl of 0.5%(w/v) of sodium methoxide in deionized water was added into the resulting vial, left to sit at room temperature for 2 hours, and analyzed using Multipurpose sampler-GC-PFPD. As a control, ethanol was added instead of test OE materials. Malodor suppression was calculated as described in Example 1 above.

Compound	methyl mercaptan suppression (%) [3] [%]	methyl mercaptan suppression (%) [5] [%]	further results
CC(=O)/C=C/C1C(C)=CCCC1(C)C (stereo not drawn) [IONONE-ALPHA, ionone alpha]	50	14	Malodor reduction (%) propyl mercaptan [1]: <20%; Malodor reduction (%) furfuryl mercaptan [2]: 46%; Malodor reduction (%) allyl mercaptan [4]: 43%
CCC/C=C/C=O [HEXENAL, TRANS-2,, trans-2-hexenal]	–	82	methyl mercaptan suppression (%) A alone ([6]; TRANS-2): 33%
OCCc1ccccc1 [PHENYL ETHYL ALCOHOL-BETA, phenethyl alcohol beta]	<20	–	–
CC=Cc1ccc(O)c(OC)c1 [ISOEUGENOL, isoeugenol]	–	15	–
CCCCC/C=C/C=O [OCTENAL TRANS-2]	–	82	–
CC/C=C\CC/C=C/C=O [NONADIEN-1-AL, TRANS-2, CIS-6,]	–	74	–
CCCCC/C(C=O)=C/c1ccccc1 [AMYL CINN ALD, ALPHA]	–	5	methyl mercaptan suppression (%) A alone [6]: −3% and −1%
CCCCCC/C=C/C=O [NONENAL, TRANS-2,]	–	86	–
CCOC(C)=O [ETHYL ACETATE, ethyl acetate]	<20	–	–
CCCCCCCCC/C=C/C=O [DODECENAL, TRANS-2,]	–	53	–
C=CC(O)CCCCC (stereo not shown) [OCTEN-1 3-OL]	–	19	–
CC/C=C/C=C/C=O [HEPTADIENAL, TRANS-2-TRANS-4]	–	44	–
damascone beta [DAMASCONE, BETA]	74	99	Malodor reduction (%) propyl mercaptan [1]: 23%; Malodor reduction (%) furfuryl mercaptan [2]: 47%; Malodor reduction (%) allyl mercaptan [4]: 85%
CCCCCC1CCCC(=O)O1 (stereo not shown) [DECALACTONE DELTA]	<20	–	–
CCOC(=O)C(C)CC (stereo not shown) [ETHYL 2-METHYLBUTYRATE, ethyl 2-methylbutyrate]	<20	–	–
C=C(C)[C@@H]1CC=C(C)C(=O)C1 [CARVONE-L, carvone-l]	60	14	Malodor reduction (%) propyl mercaptan [1]: <20%; Malodor reduction (%) furfuryl mercaptan [2]: 27%; Malodor reduction (%) allyl mercaptan [4]: <20%; methyl mercaptan suppression (%) A alone [6]: 12%
C/C=C/C(=O)OCC [ETHYL-TRANS-2 BUTENOATE, ethyl-trans-2-butenoate]	–	73	methyl mercaptan suppression (%) A alone [6]: 64%
O=C1CCCCCCCCCCCCCCO1 [CYCLOPENTADECANOLIDE, cyclopentadecanolide]	<20	–	–
CCCC/C=C/C=C/C=O [NONADIENAL-TRANS-2-TRANS-4, trans-2-trans-4-nonadien-1-al]	–	42	–

Compound	methyl mercaptan suppression (%) [3] [%]	methyl mercaptan suppression (%) [5] [%]	further results
CCC(=O)OCCc1ccccc1 [PHENYLETHYL PROPIONATE, phenyl ethyl propionate]	<20	–	–
CCCC/C=C/C=O [HEPTENAL-TRANS-2]	–	82	–
CC(C)OC(=O)C=Cc1ccccc1 [ISOPROPYL CINNAMATE]	–	21	–
CC(C)CC=C(C=O)c1ccccc1 [METH 2-PHEN 2-HEXENAL, 5,]	–	59	–
CC=Cc1ccc(OC)cc1 [ANETHOL NF, anethol]	<20	–	–
CC/C=C\CCOC(C)=O [HEXENYL CIS 3 ACETATE, cis-3-hexenyl acetate]	38	60	Malodor reduction (%) propyl mercaptan [1]: <20%; Malodor reduction (%) furfuryl mercaptan [2]: 28%; Malodor reduction (%) allyl mercaptan [4]: <20%; methyl mercaptan suppression (%) B alone ([6]; Group B level 100 ppm): 22% and 27%
CC/C=C\CC1=C(C)CCC1=O [JASMONE, CIS]	–	32	–
CC1CCC(C(C)C)C(O)C1 (stereo not shown) [MENTHOL NATURAL, menthol]	<20	–	–
piperitone-d [[…]]	45	37	Malodor reduction (%) propyl mercaptan [1]: <20%; Malodor reduction (%) furfuryl mercaptan [2]: 64%; Malodor reduction (%) allyl mercaptan [4]: 51%; methyl mercaptan suppression (%) A alone [6]: 8%; methyl mercaptan suppression (%) A alone ([6]; listed as PIPERITONED): 12%
C=CCc1ccc(O)c(OC)c1 [EUGENOL, eugenol]	78	46	Malodor reduction (%) propyl mercaptan [1]: 44%; Malodor reduction (%) furfuryl mercaptan [2]: 80%; Malodor reduction (%) allyl mercaptan [4]: 63%; methyl mercaptan suppression (%) B alone ([6]; Group B level 400 ppm): 12% and 14% and 15% and 16%
O=C/C=C/c1ccccc1 [CINN ALD, cinnamic aldehyde]	26	33	Malodor reduction (%) propyl mercaptan [1]: 26%; Malodor reduction (%) furfuryl mercaptan [2]: 27%; Malodor reduction (%) allyl mercaptan [4]: <20%
CC(C)=CCCC(C)=CC=O [CITRAL SYN REFINED (FDO), CITRAL]	–	25	methyl mercaptan suppression (%) A alone [6]: 1% and 0%
CC(=O)c1ccccc1 [ACETOPHENONE, acetophenone]	–	–	methyl mercaptan suppression (%) A alone [6]: 4%
CC/C=C\CCCCCO [NONENOL, CIS 6]	–	22	–
CC(=O)/C=C/C=C(C)C [METHYL HEPTADIENONE, methyl heptadienone]	–	–	methyl mercaptan suppression (%) A alone [6]: 12% and 6% and 8% and 15%
CCC/C=C/CO [HEXENOL, TRANS-2-, trans-2-hexenol]	–	29	–
CC(O)CO (stereo not shown) [PROPYLENE GLYCOL (SOLVENT), propylene glycol]	–	–	methyl mercaptan suppression (%) B alone ([6]; Group B level 400 ppm): −5%
COC(=O)C=Cc1ccccc1 [METH CINNAMATE, methyl cinnamate]	–	36	–
CC(C)CCOC(=O)C=Cc1ccccc1 [ISOAMYL CINNAMATE]	–	10	–

Compound	methyl mercaptan suppression (%) [3] [%]	methyl mercaptan suppression (%) [5] [%]	further results
CC(=O)OC1CC(C)CCC1C(C)C (stereo not shown) [MENTHYL ACETATE]	<20	–	–
CCCCCCCC(C)=O [METHYL HEPTYL KETONE]	<20	–	–
CCCCCCC/C=C/C=O [DECENAL, TRANS-2,]	–	90	–
CC(C)=CCCC(C)C=O (stereo not shown) [MELONAL]	<20	–	–
ISO JASMONE	–	31	–
COC(=O)c1ccccc1O [METHYL SALICYLATE EXT PURE, METHYL SALICYLATE]	<20	–	–
CCOC(=O)C=Cc1ccccc1 [ETH CINNNAMTE, ethyl cinnamate]	–	50	methyl mercaptan suppression (%) A alone [6]: 12% and 8%
C=C(C)C1CC=C(C=O)CC1 (stereo not shown) [PERILLA ALD]	–	12	methyl mercaptan suppression (%) A alone [6]: 16%
CC/C=C\CCOC(=O)CC [HEXENYL PROP, CIS-3,]	–	32	–
CCCCCCCC1CCCC(=O)O1 (stereo not shown) [DODECALACTONE DELTA, dodecalactone delta]	<20	–	–
CC(C)c1ccc(C=O)cc1 [CUMIN ALD, cumin aldehyde]	–	–	methyl mercaptan suppression (%) A alone [6]: −42%
CC/C=C\CCOC(=O)CC(C)C [HEXENYL ISO VAL, CIS-3,]	–	24	–
CCC/C=C/COC(C)=O [HEXENYL-TRANS-2 ACETATE]	–	35	–
CCCC(=O)OCC [ETHYL BUTYRATE, ethyl butyrate]	<20	–	–
CCCCCC=CCC(=O)OC [METHYL-3 -NONENOATE, METHYL-3-NONENOATE]	–	36	methyl mercaptan suppression (%) A alone [6]: 7%
C/C=C(\C)C(=O)OCCc1ccccc1 [PHEN ETH TIGLATE]	–	–	methyl mercaptan suppression (%) A alone [6]: 4%
CC1=CC(=O)CC(C)(C)C1 [ISOPHORONE]	–	31	–
CC/C=C\CCOC(=O)CCC [HEXENYL BUTY, CIS-3,]	–	22	–
Cc1ccc(C(C)C)c(O)c1 [THYMOL, thymol]	–	–	methyl mercaptan suppression (%) B alone ([6]; Group B level 400 ppm): 0%
